Data published in patent US20240043420A1, “7-AZAINDOLE COMPOUNDS FOR INHIBITION OF BCR-ABL TYROSINE KINASES” (EnLiven Therapeutics, Inc., priority 2020, published 2024).

How the values were obtained:
K562 cells = assay: K562 cell proliferation assay (CellTiter-Glo); assay type: cell-based; details: Homo sapiens, K562, 72 h, CellTiter-Glo viability, read-out: Cell Line (IC50, nM) K562
In short: (§1)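 Cells in IMDM/10% FBS seeded at 2,000 (K562) or 1,500 (HL60) per well, exposed to serially diluted compounds for 72 h at 37 °C, 5% CO2. Viability by CellTiter-Glo luminescence, normalized between DMSO (high) and cell-free media (low) controls.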

[1] = tested on: pCRKL in Ba/F3 ABL1 (T315I) cells; assay: pCRKL ELISA assay in Ba/F3 ABL T315I cells; assay type: cell-based; details: Mus musculus, BaF3, 1.5 h, 90 minutes incubation, read-out: pCRKL ELISA, Cell Line IC50 (nM) Ba/F3 ABL1 (T315I)
Experimental: K562 or Ba/F3 ABL T315I cells (2.0*10^5 cells/100 μl/well) were seeded in 96 well (Corning, cat #3799). Compounds were dissolved in DMSO, serially diluted in DMSO and then were added, mixed, and incubated for 90 minutes at 37° C., 5% CO2. Following the 90-minute incubation, plates were centrifuged for 5 min at 3000 RPM and supernatant was removed from each well. Cells were washed 3 times with 150 μl PBS prior to addition of 100 μl cell RIPA lysis buffer (Boston BioProducts, cat #BP-115D) supplied with 1×complete ULTRA cocktail inhibitor (Roche, 05892791001) and 1×PhosSTOP Phosphatase Inhibitor Cocktail Tablets (Roche, 04906837001). Cells were incubated with lysis buffer for 1 hour at 4° C. prior to storage at −80 C.
A capture antibody able to detect phosphorylated and non-phosphorylated CRKL (R&D Systems, cat #AF5127) was added to Meso Scale Discovery (MSD) standard bind plates (MSD, cat #L15XA-3) at 5 ug/mL and incubated at 4° C. overnight. The next day, plates were washed with PBS+0.05% Tween20 (PBST) and 150 μl of 5% BSA blocking solution was added for 1 hour at room temperature with shaking. Plates were washed with PBST. Lysates were thawed and 30 μl of lysate was added to the MSD plates and incubated for 2 hours at room temperature with shaking. MSD plates were washed with PBST and 30 μl of a detection antibody that binds phosphorylated pCRKL (R&D Systems, cat #MAB6910) was added at 1 μg/mL to each well. Plates were incubated for 1 hour at room temperature with shaking. Plates were washed with PBST prior to addition of 30 μl of a sulfo tagged goat anti mouse detection antibody (MSD cat #R32AC-1). Plates were incubated for 1 hour at room temperature with shaking. Plates were washed with PBST prior to addition of 150 ul of 1×MSD read buffer T (MSD, cat 4R92TC-2). Electrochemiluminescence (ECLU) was read on an MSD plate reader (Meso Scale Discovery). The remaining activity by calculated as follows: 00 Relative activity=100×(ELCUsample−ECLULC)/(ECLUHC−ECLULC). The low and high controls (LC/HC) are generated from lysate from wells without cells or with cells treated with 0.1% DMSO, respectively. IC50 values were calculated using XLFit software using a nonlinear regression model with a sigmoidal dose response and are shown in Table 4 and Table 5 below.

ABL1 (T315I) = ABL1 (T315I) (Homo sapiens, UniProt P00519, T315I); assay: Luminescence-based ABL kinase assay (ADP-Glo, 300 μM ATP), T315I mutant; assay type: biochemical
In short: (§2)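 Buffer: 50 mM HEPES pH 7.5, 10 mM MgCl2, 1 mM EGTA, 2 mM DTT, 0.05% BSA. Compound preincubated 30 min at RT with kinase (3.325 nM in enzyme solution), then started with a Peptide 2 (6 μM) and ATP (1.2 mM) solution, both stock levels; 90 min at RT.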

pCRKL in K562 cells = assay: pCRKL ELISA assay in K562 cells; assay type: cell-based; details: Homo sapiens, 1.5 h, 90 minutes incubation, read-out: PCRKL ELISA, Cell Line IC50 (nM) K562
In short: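 K562 or Ba/F3 ABL T315I cells (2.0*10^5 cells/well) exposed to compound for 90 minutes at 37 °C, then lysed; CRKL captured by total-CRKL antibody and phospho-CRKL detected by MSD electrochemiluminescence. Activity normalised to no-cell and 0.1% DMSO controls; IC50 from sigmoidal dose-response fit.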

ABL1 = biological target: T1, ABL1 (Homo sapiens, UniProt P00519); assay: Luminescence-based ABL kinase assay (ADP-Glo, 300 μM ATP); assay type: biochemical
T1 construct: purchased Carna Biosciences
In short: as §2

HL60 cells = assay: HL60 cell proliferation assay (CellTiter-Glo); assay type: cell-based; details: Homo sapiens, HL-60, 72 h, CellTiter-Glo viability, read-out: Cell Line (IC50, nM) HL60
In short: as §1

Q: With `COc1nc2ncsc2cc1-c1c[nH]c2nc(NC(=O)[C@@H]3C[C@@H]3F)ccc12` [Compound 146, (1S,2S)-2-fluoro-N-(3-[5-methoxy-[1,3]thiazolo[4,5-b]pyridin-6-yl]-1H-pyrrolo[2,3-b]pyridin-6-yl)cyclopropane-1-carboxamide] as the compound, how does the IC50 (K562 cells) read?
A: 9.9 nM

Q: What about the IC50 [1] of the same compound?
A: 112 nM

Q: What about the IC50 (ABL1 (T315I)) of the same compound?
A: 14 nM

Q: What about the IC50 (pCRKL in K562 cells) of the same compound?
A: 32 nM

Q: And the IC50 (ABL1)?
A: 3.74 nM

Q: And the IC50 (HL60 cells)?
A: > 10000 nM

Q: How did the IC50 (K562 cells) turn out when `COc1cc2ncsc2c(F)c1-c1c[nH]c2nc(NC(=O)[C@@H]3C[C@@H]3F)ccc12` [Compound 147, (1S,2S)-2-fluoro-N-(3-(7-fluoro-5-methoxybenzo[d]thiazol-6-yl)-1H-pyrrolo[2,3-b]pyridin-6-yl)cyclopropane-1-carboxamide] was run?
A: 16.1 nM

Q: And the IC50 [1]?
A: 35.7 nM

Q: And the IC50 (ABL1 (T315I))?
A: 1.71 nM

Q: And the IC50 (pCRKL in K562 cells)?
A: 35.7 nM

Q: And the IC50 (ABL1)?
A: 5.54 nM

Q: What about the IC50 (HL60 cells) of the same compound?
A: > 10000 nM
